Measured values from patent US8937089B2, “Synergistic mixtures of anthranilamide invertebrate pest control agents” (priority 2004, dated 2015).
Where two headings read alike, the source gives them in different places.

Columns and labels:
Experiment in all cases: whole plant or invertebrate
Assay type in all cases: in vivo
[1] = system: silverleaf whitefly (Bemisia argentifolii Bellows and Perring)
How it was run: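 Whitefly-egg-infested 12–14-day-old cotton plants sprayed with compound in 10% acetone/90% water plus 300 ppm non-ionic surfactant, in triplicate. Plants then held 13 days at 28 °C and 50–70% relative humidity before mortality assessment.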

[2] = system: western flower thrip (Frankliniella occidentalis Pergande)
How it was run: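 Compounds in 10% acetone/90% water with 300 ppm non-ionic surfactant were sprayed onto 5- to 7-day-old bean plants, 3 replicates. After 1 h drying, 22–27 adult thrips were added per unit. Units were held 7 days at 25° C, 45–55% RH, assessing contact and/or systemic control.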

[3] = system: corn planthopper (Peregrines maidis)
How it was run: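 Compounds in 10% acetone/90% water with 300 ppm X-77 surfactant sprayed (3 replications) onto 3- to 4-day-old corn plants, dried 1 h, then infested with 10–20 corn planthopper nymphs aged 18–20 days. Held 6 days at 19-21° C. and 50-70% relative humidity; contact and/or systemic control assessed.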

[4] = system: cotton melon aphid (Aphis gossypii Glover)
How it was run: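 Cotton plants (6–7 days old) pre-infested with 30–40 aphids by cut-leaf method, sprayed with compound (ppm) in 10% acetone/90% water with 300 ppm X-77 surfactant, three replicates. Held 6 days at 19–21 °C, 50–70% RH; contact and/or systemic control assessed.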

[5] = system: green peach aphid (Myzus persicae Sulzer)
How it was run: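 Compounds formulated in 10% acetone/water with 300 ppm X-77 surfactant were atomized onto aphid-infested radish seedlings, with three replicates per treatment. Infestation was 30–40 aphids transferred on excised leaf pieces, covering contact and systemic exposure. Test units stayed 6 days in a growth chamber at 19–21 °C and 50–70% relative humidity.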

[6] = system: potato leafhopper (Empoasca fabae Harris)
How it was run: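 Bean plants (5–6 days old, one primary leaf excised) were sprayed with 1 mL of compound in 10% acetone/water with 300 ppm X-77 surfactant, 3 replicates. After drying for 1 h, each unit was infested with 5 adult leafhoppers. Units were held 6 days at 19–21 °C and 50–70% RH.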

[7] = rate 1 ppm, single compound, spray, 7 days
[8] = rate 500 ppm, single compound, spray, 7 days

CNC(=O)c1cc(Cl)cc(C)c1NC(=O)c1cc(Br)nn1-c1ncccc1Cl [Compound 1, 3-bromo-N-[4-chloro-2-methyl-6-[(methylamino)carbonyl]phenyl]-1-(3-chloro-2-pyridinyl)-1H-pyrazole-5-carboxamide]
mortality at 8 ppm ([1]; Bemisia argentifolii, in Gossypium hirsutum, Table 2A, Compound 1 8 ppm, read-out: % Mortality (observed)): 4%
mortality at 10 ppm ([1]; Bemisia argentifolii, in Gossypium hirsutum, Table 2A, Compound 1 10 ppm, read-out: % Mortality (observed)): 1%
mortality at 6 ppm ([1]; Bemisia argentifolii, in Gossypium hirsutum, Table 2B, rate 6 ppm, read-out: % mortality (obs)): 3%
mortality at 8 ppm ([1]; Bemisia argentifolii, in Gossypium hirsutum, Table 2B, rate 8 ppm, read-out: % mortality (obs)): 3%
mortality at 10 ppm ([1]; Bemisia argentifolii, in Gossypium hirsutum, Table 2B, rate 10 ppm, read-out: % mortality (obs)): 5%
mortality at 10 ppm ([2]; Frankliniella occidentalis, 168 h, rate 10 ppm, single compound, spray, 7 days, read-out: % mortality (obs)): 44%
mortality at 50 ppm ([2]; Frankliniella occidentalis, 168 h, rate 50 ppm, single compound, spray, 7 days, read-out: % mortality (obs)): 49%
mortality at 100 ppm ([2]; Frankliniella occidentalis, 168 h, rate 100 ppm, single compound, spray, 7 days, read-out: % mortality (obs)): 46%
mortality at 8 ppm ([2]; Frankliniella occidentalis, Table 3A, Compound 1 8 ppm, read-out: % Mortality (observed)): 3%
mortality at 25 ppm ([2]; Frankliniella occidentalis, Table 3A, Compound 1 25 ppm, read-out: % Mortality (observed)): 17%
mortality at 81 ppm ([2]; Frankliniella occidentalis, Table 3A, Compound 1 81 ppm, read-out: % Mortality (observed)): 30%
mortality at 20 ppm ([3]; Corn Plant Hopper, rate 20 ppm, read-out: % mortality (obs)): 15%
mortality at 100 ppm ([3]; Corn Plant Hopper, rate 100 ppm, read-out: % mortality (obs)): 19%
mortality at 500 ppm ([3]; Corn Plant Hopper, rate 500 ppm, read-out: % mortality (obs)): 28%
mortality at 5 ppm ([3]; Table 5A, Compound 1 5 ppm, read-out: % Mortality (observed)): 6%
mortality at 50 ppm ([3]; Table 5A, Compound 1 50 ppm, read-out: % Mortality (observed)): 9%
mortality at 150 ppm ([3]; Table 5A, Compound 1 150 ppm, read-out: % Mortality (observed)): 28%
mortality at 0.8 ppm ([4]; Aphis gossypii, Table 6A, Compound 1 0.8 ppm, read-out: % Mortality (observed)): 12%
mortality at […] ([4]; Aphis gossypii, Table 6A, Compound 1 4.5 ppm, read-out: % Mortality (observed)): 32%
mortality at 25 ppm ([4]; Aphis gossypii, Table 6A, Compound 1 25 ppm, read-out: % Mortality (observed)): 23%
mortality at 4 ppm ([4]; Aphis gossypii, rate 4 ppm, read-out: % mortality (obs)): 25%
mortality at 20 ppm ([4]; Aphis gossypii, rate 20 ppm, read-out: % mortality (obs)): 41%
mortality at 100 ppm ([4]; Aphis gossypii, rate 100 ppm, read-out: % mortality (obs)): 49%
mortality at 10 ppm ([5]; Myzus persicae, in Raphanus sativus, Green Peach Aphid, rate 10 ppm, read-out: % mortality (obs)): 24%
mortality at 20 ppm ([5]; Myzus persicae, in Raphanus sativus, Green Peach Aphid, rate 20 ppm, read-out: % mortality (obs)): 35%
mortality at 40 ppm ([5]; Myzus persicae, in Raphanus sativus, Green Peach Aphid, rate 40 ppm, read-out: % mortality (obs)): 36%
mortality at 2.1 ppm ([5]; Myzus persicae, in Raphanus sativus, Table 7A, Compound 1 2.1 ppm, read-out: % Mortality (observed)): 5%
mortality at 3.9 ppm ([5]; Myzus persicae, in Raphanus sativus, Table 7A, Compound 1 3.9 ppm, read-out: % Mortality (observed)): 2%
mortality at […] ([5]; Myzus persicae, in Raphanus sativus, Table 7A, Compound 1 7.5 ppm, read-out: % Mortality (observed)): 6%
mortality at 0.4 ppm ([6]; Empoasca fabae, Table 4A, Compound 1 0.4 ppm, read-out: % Mortality (observed)): 0%
mortality at 1.4 ppm ([6]; Empoasca fabae, Table 4A, Compound 1 1.4 ppm, read-out: % Mortality (observed)): 0%
mortality at 4.6 ppm ([6]; Empoasca fabae, Table 4A, Compound 1 4.6 ppm, read-out: % Mortality (observed)): 0%
mortality at 4 ppm ([6]; Empoasca fabae, rate 4 ppm, alone, read-out: % mortality (obs)): 23%
mortality at 14 ppm ([6]; Empoasca fabae, rate 14 ppm, alone, read-out: % mortality (obs)): 37%
mortality at 50 ppm ([6]; Empoasca fabae, rate 50 ppm, alone, read-out: % mortality (obs)): 54%

COC(=O)N(C(=O)N1CO[C@@]2(C(=O)OC)Cc3cc(Cl)ccc3C2=N1)c1ccc(OC(F)(F)F)cc1 [Indoxacarb]
% mortality (obs) ([1]; Table 2B, rate 1 ppm): 0%
% mortality (obs) ([1]; Table 2B, rate 3 ppm): 0%
% mortality (obs) ([1]; Table 2B, rate 10 ppm): 0%
% mortality (obs) [2, 7]: 50%
% mortality (obs) [2, 8]: 50%
% mortality (obs) ([2]; rate 3000 ppm, single compound, spray, 7 days): 50%
% mortality (obs) ([3]; Corn Plant Hopper, rate 50 ppm): 3%
% mortality (obs) ([3]; Corn Plant Hopper, rate 500 ppm): 4%
% mortality (obs) ([3]; Corn Plant Hopper, rate 3000 ppm): 18%
% mortality (obs) ([4]; rate 10 ppm): 16%
% mortality (obs) ([4]; rate 20 ppm): 28%
% mortality (obs) ([4]; rate 30 ppm): 34%
% mortality (obs) ([5]; Green Peach Aphid, rate 10 ppm): 9%
% mortality (obs) ([5]; Green Peach Aphid, rate 20 ppm): 7%
% mortality (obs) ([5]; Green Peach Aphid, rate 30 ppm): 8%
% mortality (obs) ([6]; rate 0.5 ppm, alone): 33%
% mortality (obs) ([6]; rate 1 ppm, alone): 20%
% mortality (obs) ([6]; rate 2 ppm, alone): 27%

CNC(=O)O/N=C(\SC)C(=O)N(C)C [Oxamyl]
% mortality (obs) ([1]; Table 2B, rate 0.1 ppm): 2%
% mortality (obs) ([1]; Table 2B, rate 0.3 ppm): 0%
% mortality (obs) ([1]; Table 2B, rate 1 ppm): 1%
% mortality (obs) [2, 7]: 30%
% mortality (obs) ([2]; rate 50 ppm, single compound, spray, 7 days): 40%
% mortality (obs) [2, 8]: 100%
% mortality (obs) ([3]; Corn Plant Hopper, rate 0.08 ppm): 2%
% mortality (obs) ([3]; Corn Plant Hopper, rate 0.16 ppm): 5%
% mortality (obs) ([3]; Corn Plant Hopper, rate 0.2 ppm): 6%
% mortality (obs) ([4]; rate 1 ppm): 29%
% mortality (obs) ([4]; rate 10 ppm): 37%
% mortality (obs) ([4]; rate 1000 ppm): 100%
% mortality (obs) ([5]; Green Peach Aphid, rate 40 ppm): 8%
% mortality (obs) ([5]; Green Peach Aphid, rate 70 ppm): 18%
% mortality (obs) ([5]; Green Peach Aphid, rate 100 ppm): 35%
% mortality (obs) ([6]; rate 0.1 ppm, alone): 20%
% mortality (obs) ([6]; rate 2 ppm, alone): 20%
% mortality (obs) ([6]; rate 100 ppm, alone): 100%
